Legend:
[1] = test system: CT26.WT tumors; test: Anti-tumor efficacy of Compound 1 with and without anti-PD-1 in the CT26.WT murine colorectal model (Example 2B); format: in vivo, Mus musculus; conditions: for Tumor volume (mm^3), Mean ± SEM: n = 8; for ILS (%) / MST: endpoint tumor volume 2000 mm^3; for RTV at day 15 / T/C (%) / TGI (%) / Tumor Size (mm^3) at day 15, Mean ± SEM: day 15
Experimental: Female BALB/c mice were inoculated subcutaneously at right flank with CT26.WT cells for tumor development. Five days after tumor inoculation, 48 mice with tumor size ranging from 39-61 mm^3 (average tumor size 49 mm^3) were selected and assigned into 6 groups using stratified randomization with 8 mice per group based upon their tumor volumes. The treatments were started from the day of randomization (defined as D0), Group 1 was treated with Vehicle (Tween 80:Ethanol:Saline—5:5:90 v/v/v), s.c. q.d.×14, Group 2 was treated with anti-PD-1 10 mg/kg i.p. q4d×4, Group 3 was treated with Compound 1 3 mg/kg s.c. q.d.×5D followed by 1 mg/kg s.c. q.d.×9D, Group 4 was treated with Compound 1 3 mg/kg s.c. q.d.×5D followed by 1 mg/kg s.c. q.d.×9D+anti-PD-1 10 mg/kg i.p. q4d×4, Group 5 was treated with Compound 1 1 mg/kg s.c. q.d.×14D and Group 6 was treated with Compound 1 1 mg/kg s.c. q.d.×14D+anti-PD-1 10 mg/kg i.p. q4d×4. The tumor sizes were measured three times per week during the treatment. The entire study was terminated on D64 after start of the treatment.
Animal Species: Mus musculus; Strain: BALB/c; Age: 6-8 weeks; Sex: female; Body weight (at treatment start): 20-24 g.
The CT26.WT tumor cells (ATCC, Cat #CRL-2638™) were maintained in vitro as a monolayer culture in RPMI 1640 medium supplemented with 10% heat inactivated fetal bovine serum, 100 U/mL penicillin and 100 μg/mL streptomycin, and L-glutamine (2 mM) at 37° C. in an atmosphere of 5% CO2 in air. The tumor cells were routinely subcultured twice weekly by trypsin-EDTA treatment. The cells growing to a confluency around 70%-80% were harvested and counted for tumor inoculation. The cultured CT26.WT cells were harvested, re-suspended in base medium with viability>90%. Each mouse was inoculated subcutaneously at the right flank with 3×10^5 in 0.05 ml base medium for tumor development.
The treatments were started on day 5 after tumor inoculation when the tumor size reached 39-61 mm^3 (average tumor size 49 mm^3). Each group consisted of 8 tumor bearing mice. The testing article was administrated at the dosing volume indicated to the mice according to the predetermined regimen as shown Table 2B-1. Testing article formulations were prepared according to standard procedures. Details regarding tumor measurements and endpoints, and statistical analysis are provided in EXAMPLE 3.
Tumor sizes were measured three times a week in two dimensions using a caliper, and the volume expressed in mm^3 using the formula: V=0.5 a×b^2 where a and b are the long and short diameters of the tumor, respectively. The tumor sizes were then used for the calculations of both tumor growth inhibition (TGI) and T/C values.
TGI is calculated for each group using the formula: […]
TVTreatment_DayN is the average tumor volume of a treatment group on a given day, TVTreatment_Day0 is the average tumor volume of the treatment group on the first day of treatment, TVVehicle_DayN is the average tumor volume of the vehicle control group on a given day, and TVVehicle_Day0 is the average tumor volume of the vehicle group on the first day of treatment.
The T/C value (in percent) is an indication of antitumor effectiveness, T/C (%)=RTVTreatment/RTVControl×100% (RTVTreatment: the mean RTV of the treatment group; RTVControl: the mean RTV of the vehicle treated group). RTV (relative tumor volume)=TVDayN/TVDay0. TVDayN and TVDay0 is the tumor volume on day N and Day 0 respectively. T/C (%)≤42% is considered as significant antitumor activity and <10% is considered as highly significant antitumor activity by the National Cancer Institute criteria.
Animal survival curve: When an individual animal reached to the termination endpoint (TV>2000 mm^3), the mouse was euthanized. The time from treatment initiation to the termination was deemed as its survival time. Survival curve was plotted by Kaplan-Meier method. Median survival time (MST) was calculated for each group. Increase of life span (ILS) was calculated according to the following formula: […]

[2] = test system: HCT116 tumors; test: Anti-tumor efficacy of Compound 1 in the HCT116 xenograft model (Example 12); format: in vivo, mice
Experimental: Female BALB/c nude mice were inoculated subcutaneously in the right flank with HCT116 cells for tumor development. Nine days after tumor inoculation, mice with tumor sizes ranging from 90-260 mm^3 (average tumor size 155 mm^3) were selected and assigned into groups using stratified randomization with 8 mice per group based upon their tumor volumes. The treatments were started from the day of randomization (defined as D0), Group 1 was treated with Vehicle control, 10 ml/kg, IP, bid×21; Group 4 was treated with Compound 1, 1.4 mg/kg, SC, 5d ON, 2 d OFF×3 cycles; and Group 5 was treated with Compound 1, 3.3 mg/kg, IV, tiw, (Thu, Sat, Mon)×3 cycles. The tumor sizes were measured two times per week during the treatment. The entire study was terminated on D18 after start of the treatment. All treatments were well-tolerated without any adverse effects or significant body weight loss.

[3] = Group 4, 1.4 mg/kg SC 5 d ON 2 d OFF x3 cycles
[4] = Group 4, 1.4 mg/kg SC 5 d ON 2 d OFF x3 cycles, day 11
[5] = Group 5, 3.3 mg/kg IV tiw x3 cycles
[6] = Group 5, 3.3 mg/kg IV tiw x3 cycles, day 11

CC(=O)N[C@@H](Cc1c[nH]c2ccccc12)C(=O)N[C@@H](CCC(=O)C=[N+]=[N-])C(=O)OC(C)C [Compound 1, Isopropyl (S)-2-((S)-2-acetamido-3-(1H-indol-3-yl)propanamido)-6-diazo-5-oxohexanoate]
Tumor volume (mm^3), Mean ± SEM ([1]; 1 mg/kg qdx14 s.c., Day 0): 49 ± 2 mm^3 | Tumor volume (mm^3), Mean ± SEM ([1]; 1 mg/kg qdx14 s.c., Day 3): 68 ± 6 mm^3 | Tumor volume (mm^3), Mean ± SEM ([1]; 1 mg/kg qdx14 s.c., Day 6): 92 ± 8 mm^3 | Tumor volume (mm^3), Mean ± SEM ([1]; 1 mg/kg qdx14 s.c., Day 8): 104 ± 9 mm^3 | Tumor volume (mm^3), Mean ± SEM ([1]; 1 mg/kg qdx14 s.c., Day 10): 112 ± 9 mm^3 | Tumor volume (mm^3), Mean ± SEM ([1]; 1 mg/kg qdx14 s.c., Day 13): 156 ± 18 mm^3 | Tumor volume (mm^3), Mean ± SEM ([1]; 1 mg/kg qdx14 s.c., Day 15): 186 ± 21 mm^3 | Tumor volume (mm^3), Mean ± SEM ([1]; 3 mg/kg qdx5 then 1 mg/kg qdx9 s.c., Day 0): 49 ± 2 mm^3 | Tumor volume (mm^3), Mean ± SEM ([1]; 3 mg/kg qdx5 then 1 mg/kg qdx9 s.c., Day 3): 54 ± 2 mm^3 | Tumor volume (mm^3), Mean ± SEM ([1]; 3 mg/kg qdx5 then 1 mg/kg qdx9 s.c., Day 6): 65 ± 3 mm^3 | Tumor volume (mm^3), Mean ± SEM ([1]; 3 mg/kg qdx5 then 1 mg/kg qdx9 s.c., Day 8): 139 ± 14 mm^3 | Tumor volume (mm^3), Mean ± SEM ([1]; 3 mg/kg qdx5 then 1 mg/kg qdx9 s.c., Day 10): 180 ± 20 mm^3 | Tumor volume (mm^3), Mean ± SEM ([1]; 3 mg/kg qdx5 then 1 mg/kg qdx9 s.c., Day 13): 224 ± 25 mm^3 | Tumor volume (mm^3), Mean ± SEM ([1]; 3 mg/kg qdx5 then 1 mg/kg qdx9 s.c., Day 15): 333 ± 41 mm^3 | ILS (%) ([1]; Compound 1 1 mg/kg): 40% | MST ([1]; Compound 1 1 mg/kg): 28 days | ILS (%) ([1]; Compound 1 3/1 mg/kg): 35% | MST ([1]; Compound 1 3/1 mg/kg): 27 days | RTV at day 15 ([1]; Cpd. 1 1 mg/kg): 3.84 ± 0.43 | T/C (%) ([1]; Cpd. 1 1 mg/kg): 15.23% | TGI (%) ([1]; Cpd. 1 1 mg/kg): 188.18% | Tumor Size (mm^3) at day 15, Mean ± SEM ([1]; Cpd. 1 1 mg/kg): 186 ± 21 mm^3 | RTV at day 15 ([1]; Cpd. 1 3/1 mg/kg): 4.79 ± 0.69 | T/C (%) ([1]; Cpd. 1 3/1 mg/kg): 19.00% | TGI (%) ([1]; Cpd. 1 3/1 mg/kg): 84.90% | Tumor Size (mm^3) at day 15, Mean ± SEM ([1]; Cpd. 1 3/1 mg/kg): 224 ± 25 mm^3 | RTV at day 11 [2, 3]: 4.061 ± 0.33 | Tumor Size at day 11 [2, 3]: 602 ± 72 mm^3 | Tumor volume ([2]; Group 4, 1.4 mg/kg SC 5 d ON 2 d OFF x3 cycles, day 0): 155 ± 19 mm^3 | Tumor volume ([2]; Group 4, 1.4 mg/kg SC 5 d ON 2 d OFF x3 cycles, day 4): 227 ± 39 mm^3 | Tumor volume ([2]; Group 4, 1.4 mg/kg SC 5 d ON 2 d OFF x3 cycles, day 7): 294 ± 53 mm^3 | T/C [2, 4]: 52.25% | TGI [2, 4]: 53.92% | Tumor volume [2, 4]: 602 ± 72 mm^3 | Tumor volume ([2]; Group 4, 1.4 mg/kg SC 5 d ON 2 d OFF x3 cycles, day 14): 964 ± 176 mm^3 | RTV at day 11 [2, 5]: 3.70 ± 0.45 | Tumor Size at day 11 [2, 5]: 571 ± 82 mm^3 | Tumor volume ([2]; Group 5, 3.3 mg/kg IV tiw x3 cycles, day 0): 156 ± 19 mm^3 | Tumor volume ([2]; Group 5, 3.3 mg/kg IV tiw x3 cycles, day 4): 188 ± 23 mm^3 | Tumor volume ([2]; Group 5, 3.3 mg/kg IV tiw x3 cycles, day 7): 378 ± 60 mm^3 | T/C [2, 6]: 48.17% | TGI [2, 6]: 57.23% | Tumor volume [2, 6]: 571 ± 82 mm^3 | Tumor volume ([2]; Group 5, 3.3 mg/kg IV tiw x3 cycles, day 14): 861 ± 134 mm^3 | Tumor volume ([2]; Group 5, 3.3 mg/kg IV tiw x3 cycles, day 18): 1354 ± 204 mm^3

Source: patent publication US20220117938A1, “COMBINATON THERAPY WITH A DON PRODRUG AND AN IMMUNE CHECKPOINT INHIBITOR” (DRACEN PHARMACEUTICALS, INC., priority 2019, published 2022)
